Earlier results, collected in patent publication US20220409569A1, “Cannabinoid Products with High Bioavailability” (The Chemist's Cabinet, LLC, priority 2019, published 2022).

Conditions: oral administration

SMILES | bioavailability
C=C(C)[C@@H]1CCC(C)=C[C@H]1c1c(O)cc(CCCCC)cc1O [CBD, cannabidiol] | ~6%
CCCCCc1cc(O)c2c(c1)OC(C)(C)[C@@H]1CCC(C)=C[C@@H]21 [THC, tetrahydrocannabinol] | 4%-12%
